Molecular target: T1, BTK-WT (Homo sapiens, UniProt Q06187)
T1 construct: purified from insect cells as a full-length construct containing an N-terminal 6X-His tag; His6 (N); made in house; host or cells: insect cells (baculovirus Sf21 in Method B)
Assay: Btk in vitro inhibitory activity (one of Method A TR-FRET, Method B electrophoretic mobility shift, Method C radiometric filter binding)
Type: biochemical
Conditions: D-compounds panel data; read-out: IC50 BTK-WT

T1 sequence (Q06187 whole entry): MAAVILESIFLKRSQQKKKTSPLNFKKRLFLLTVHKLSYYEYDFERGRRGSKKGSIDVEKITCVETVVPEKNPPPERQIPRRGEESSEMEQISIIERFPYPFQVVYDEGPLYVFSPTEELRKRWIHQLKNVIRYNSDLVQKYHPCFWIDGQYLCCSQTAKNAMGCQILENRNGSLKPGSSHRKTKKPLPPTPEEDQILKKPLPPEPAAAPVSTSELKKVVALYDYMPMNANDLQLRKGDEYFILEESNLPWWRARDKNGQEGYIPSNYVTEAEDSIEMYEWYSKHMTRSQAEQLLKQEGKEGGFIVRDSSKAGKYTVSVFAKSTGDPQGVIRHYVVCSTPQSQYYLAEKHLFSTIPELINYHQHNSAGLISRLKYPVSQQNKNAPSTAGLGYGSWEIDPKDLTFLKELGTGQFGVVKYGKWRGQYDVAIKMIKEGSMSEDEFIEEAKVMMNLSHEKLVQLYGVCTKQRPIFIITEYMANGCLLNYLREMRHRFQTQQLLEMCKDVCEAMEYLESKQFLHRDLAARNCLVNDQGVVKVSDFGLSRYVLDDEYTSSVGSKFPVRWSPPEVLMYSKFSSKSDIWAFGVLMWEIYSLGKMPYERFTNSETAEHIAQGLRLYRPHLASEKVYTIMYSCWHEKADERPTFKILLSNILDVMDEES

First: Cn1cc(Nc2nc(N3C4CCC(NC(=O)c5ccc(C6CC6)cc5)C3CC4)cnc2C(N)=O)cn1 (single isomer, unassigned) [Example D-199, 5-[2-(4-cyclopropylbenzamido)-8-azabicyclo[3.2.1]octan-8-yl]-3-[(1-methyl-1H-pyrazol-4-yl)amino]pyrazine-2-carboxamide]
Second: Cn1cc(Nc2nc(N3CC(NC(=O)c4ccc(C5CC5)cc4)CC(F)(F)C3)cnc2C(N)=O)cn1 (stereo in doubt) [Example D-190, 5-[(5S)-5-(4-cyclopropylbenzamido)-3,3-difluoropiperidin-1-yl]-3-[(1-methyl-1H-pyrazol-4-yl)amino]pyrazine-2-carboxamide]
The IC50 of the first is higher: 1000 to 10000 nM for the first, no more than 10 nM for the second.

First: Cn1cc(Nc2nc(N3C4CCC(NC(=O)c5ccc(C6CC6)cc5)C3CC4)cnc2C(N)=O)cn1 (single isomer, unassigned) [Example D-200, 5-[2-(4-cyclopropylbenzamido)-8-azabicyclo[32.1]octan-8-yl]-3-[(1-methyl-1H-pyrazol-4-yl)amino]pyrazine-2-carboxamide]
Second: C[C@@H]1[C@H](NC(=O)c2ccc(C3CC3)nc2)CCCN1c1cnc(C(N)=O)c(Nc2cnn(C)c2)n1 [Example D-18, 5-[(2R,3R)-3-(6-cyclopropylpyridine-3-amido)-2-methylpiperidin-1-yl]-3-[(1-methyl-1H-pyrazol-4-yl)amino]pyrazine-2-carboxamide]
The IC50 of the first is higher: 100 to 1000 nM for the first, no more than 10 nM for the second. The second is the more potent here.

`Cn1cc(Nc2nc(N3C4CCC(NC(=O)c5ccc(C6CC6)cc5)C3CC4)cnc2C(N)=O)cn1` (single isomer, unassigned) [Example D-201, 5-[2-(4-cyclopropylbenzamido)-8-azabicyclo[3.2.1]octan-8-yl]-3-[(1-methyl-1H-pyrazol-4-yl)amino]pyrazine-2-carboxamide] and `C[C@@H]1[C@H](NC(=O)c2ccc(C(C)(O)C(F)(F)F)cc2)CCCN1c1cnc(C(N)=O)c(Nc2cnn(C)c2)n1` (single isomer, unassigned) [Example D-213] cannot be ordered by IC50: no more than 10 nM for the first, no more than 10 nM for the second.

`Cn1cc(Nc2nc(N3C4CCC(NC(=O)c5ccc(C6CC6)cc5)C3CC4)cnc2C(N)=O)cn1` (single isomer, unassigned) [Example D-202, 5-[2-(4-cyclopropylbenzamido)-8-azabicyclo[3.2. I]octan-8-yl]-3-[(1-methyl-1H-pyrazol-4-yl)amino]pyrazine-2-carboxamide] and `C[C@@H]1[C@H](NC(=O)c2ccc(C(C)(O)C(F)(F)F)cc2)CCCN1c1cnc(C(N)=O)c(Nc2cnn(C)c2)n1` (single isomer, unassigned) [Example D-214] cannot be ordered by IC50: 10 to 100 nM for the first, no more than 10 nM for the second.

`C[C@@H]1[C@H](NC(=O)c2ccc(C3CC3)cc2F)CCCN1c1cnc(C(N)=O)c(Nc2ccc(N3CCN(C)C[C@@H]3C)cc2)n1` [Example D-12, 5-[(2R,3R)-3-(4-cyclopropyl-2-fluorobenzamido)-2-methylpiperidin-1-yl]-3-({4-[(2S)-2,4-dimethylpiperazin-1-yl]phenyl}amino)pyrazine-2-carboxamide] and `C[C@@H]1[C@H](NC(=O)c2ccc(C3CC3)cc2Cl)CCCN1c1cnc(C(N)=O)c(Nc2ccc(N3CCN(C)CC3)cc2)n1` [Example D-16, 5-[(2R,3R)-3-(2-chloro-4-cyclopropylbenzamido)-2-methylpiperidin-1-yl]-3-{[4-(4-methylpiperazin-1-yl)phenyl]amino}pyrazine-2-carboxamide] cannot be ordered by IC50: no more than 10 nM for the first, no more than 10 nM for the second.

`C[C@@H]1[C@H](NC(=O)c2ccc(C3CC3)cc2F)CCCN1c1cnc(C(N)=O)c(Nc2ccc(N3CCN(C)CC3)nc2)n1` [Example D-13, 5-[(2R,3R)-3-(4-cyclopropyl-2-fluorobenzamido)-2-methylpiperidin-1-yl]-3-{[6-(4-methylpiperazin-1-yl)pyridin-3-yl]amino}pyrazine-2-carboxamide] and `C[C@@H]1[C@H](NC(=O)c2ccc(C3CC3)c(Cl)c2)CCCN1c1cnc(C(N)=O)c(Nc2ccc(N3CCN(C)CC3)cc2)n1` [Example D-17, 5-[(2R,3R)-3-(3-chloro-4-cyclopropylbenzamido)-2-methylpiperidin-1-yl]-3-{[4-(4-methylpiperazin-1-yl)phenyl]amino}pyrazine-2-carboxamide] cannot be ordered by IC50: no more than 10 nM for the first, no more than 10 nM for the second.

First: C[C@@H]1[C@H](NC(=O)c2ccc(C(C)(C)C)cc2)CCCN1c1cnc(C(N)=O)c(Nc2ccc(N3CCN(C)CC3)cc2)n1 [Example D-14, 5-[(2R,3R)-3-(4-tert-butylbenzamido)-2-methylpiperidin-1-yl]-3-{[4-(4-methylpiperazin-1-yl)phenyl]amino}pyrazine-2-carboxamide]
Second: C[C@@H]1[C@H](NC(=O)N(C)C)CCCN1c1cnc(C(N)=O)c(Nc2ccc(N3CCN(C)CC3)cn2)n1 [Example D-180, 5-[(2R,3R)-3-[(dimethylcarbamoyl)amino]-2-methylpiperidin-1-yl]-3-{[5-(4-methylpiperazin-1-yl)pyridin-2-yl]amino}pyrazine-2-carboxamide]
The IC50 of the first is lower: no more than 10 nM for the first, 100 to 1000 nM for the second. The first is the more potent here.

`Cc1cc(Nc2nc(N3CCC[C@@H](NC(=O)N4Cc5ccccc5C4=O)C3)cnc2C(N)=O)sn1` [Example D-15, N-[(3R)-1-{5-carbamoyl-6-[(3-methyl-1,2-thiazol-5-yl)amino]pyrazin-2-yl}piperidin-3-yl]-1-oxo-2,3-dihydro-1H-isoindole-2-carboxamide] and `Cc1cc(Nc2nc(N3CCC[C@@H](c4ncc(-c5ccccc5)[nH]4)C3)cnc2C(N)=O)sn1` [Example D-171, 3-[(3-methyl-1,2-thiazol-5-yl)amino]-5-[(3R)-3-(5-phenyl-1H-imidazol-2-yl)piperidin-1-yl]pyrazine-2-carboxamide] cannot be ordered by IC50: no more than 10 nM for the first, 10 to 100 nM for the second.

Compared with `CN1CCN(C(=O)c2ccc(Nc3nc(N4CCC[C@@H](n5ccc6cc(C7CC7)ccc6c5=O)C4)cnc3C(N)=O)cc2)CC1` [Example D-169, 5-[(3R)-3-(6-cyclopropyl-1-oxo-1,2-dihydroisoquinolin-2-yl)piperidin-1-yl]-3-{[4-(4-methylpiperazine-1-carbonyl)phenyl]amino}pyrazine-2-carboxamide], `CN1CCN(c2ccc(Nc3nc(N4CCC[C@@H](n5ccc6cc(C7CC7)ccc6c5=O)C4)cnc3C(N)=O)nc2)CC1` [Example D-179, 5-[(3R)-3-(6-cyclopropyl-1-oxo-1,2-dihydroisoquinolin-2-yl)piperidin-1-yl]-3-{[5-(4-methylpiperazin-1-yl)pyridin-2-yl]amino}pyrazine-2-carboxamide] is higher in IC50: no more than 10 nM for the first, 100 to 1000 nM for the second. The first is the more potent here.

`C/C=C/c1ccc(C(=O)N[C@@H]2CCCN(c3cnc(C(N)=O)c(Nc4cc(C)ns4)c3)[C@@H]2C)c(F)c1` [Example D-170, 5-[(2R,3R)-3-{2-fluoro-4-[(1E)-prop-1-en-1-yl]benzamido}-2-methylpiperidin-1-yl]-3-[(3-methyl-1,2-thiazol-5-yl)amino]pyridine-2-carboxamide] and `Cc1cc(Nc2cc(N3CCC[C@@H](NC(=O)N(C)C)[C@H]3C)cnc2C(N)=O)sn1` [Example D-175, 5-[(2R,3R)-3-[(dimethylcarbamoyl)amino]-2-methylpiperidin-1-yl]-3-[(3-methyl-1,2-thiazol-5-yl)amino]pyridine-2-carboxamide] fall in the same range of IC50: 10 to 100 nM for the first, 10 to 100 nM for the second.

`Cc1cc(Nc2nc(N3CCC[C@H](c4ncc(-c5ccccc5)[nH]4)C3)cnc2C(N)=O)sn1` [Example D-172, 3-[(3-methyl-1,2-thiazol-5-yl)amino]-5-[(3S)-3-(5-phenyl-1H-imidazol-2-yl)piperidin-1-yl]pyrazine-2-carboxamide] and `Cc1cc(Nc2nc(N3C[C@H](NC(=O)c4ccc(C5CC5)cc4F)CC[C@@H]3C)cnc2C(N)=O)sn1` [Example D-181, 5-[(2S,5R)-5-(4-cyclopropyl-2-fluorobenzamido)-2-methylpiperidin-1-yl]-3-[(3-methyl-1,2-thiazol-5-yl)amino]pyrazine-2-carboxamide] cannot be ordered by IC50: 10 to 100 nM for the first, no more than 10 nM for the second.

`C[C@@H]1[C@H](NC(=O)c2ccc(C3CC3)cc2F)CCCN1c1cnc(C(N)=O)c(Nc2cc(CN3CCOCC3)ns2)n1` [Example D-173, 5-[(2R,3R)-3-(4-cyclopropyl-2-fluorobenzamido)-2-methylpiperidin-1-yl]-3-{[3-(morpholin-4-ylmethyl)-1,2-thiazol-5-yl]amino}pyrazine-2-carboxamide] and `C[C@@H]1[C@H](NC(=O)c2ccc(C3CC3)cc2F)CCCN1c1cnc(C(N)=O)c(Nc2cc(CN3CCCCC3)ns2)n1` [Example D-176, 5-[(2R,3R)-3-(4-cyclopropyl-2-fluorobenzamido)-2-methylpiperidin-1-yl]-3-{[3-(piperidin-1-ylmethyl)-1,2-thiazol-5-yl]amino}pyrazine-2-carboxamide] cannot be ordered by IC50: no more than 10 nM for the first, no more than 10 nM for the second.

`CN1CCN(c2ccc(Nc3nc(N4CCC[C@@H](n5ccc6cc(C7CC7)cc(F)c6c5=O)C4)cnc3C(N)=O)cc2)CC1` [Example D-174, 5-[(3R)-3-(6-cyclopropyl-8-fluoro-1-oxo-1,2-dihydroisoquinolin-2-yl)piperidin-1-yl]-3-{[4-(4-methylpiperazin-1-yl)phenyl]amino}pyrazine-2-carboxamide] and `CN1CCN(c2ccc(Nc3cc(N4CCC[C@@H](n5ccc6cc(C7CC7)ccc6c5=O)C4)cnc3C(N)=O)cc2)CC1` [Example D-178, 5-[(3R)-3-(6-cyclopropyl-1-oxo-1,2-dihydroisoquinolin-2-yl)piperidin-1-yl]-3-{[4-(4-methylpiperazin-1-yl)phenyl]amino}pyridine-2-carboxamide] cannot be ordered by IC50: no more than 10 nM for the first, 10 to 100 nM for the second.

`CC1(c2ccc(Nc3nc(N4CCC[C@@H](n5ccc6cc(C7CC7)ccc6c5=O)C4)cnc3C(N)=O)cc2)CCN(C2CCCC2)CC1` [Example D-177, 3-{[4-(1-cyclopentyl-4-methylpiperidin-4-yl)phenyl]amino}-5-[(3R)-3-(6-cyclopropyl-1-oxo-1,2-dihydroisoquinolin-2-yl)piperidin-1-yl]pyrazine-2-carboxamide] and `C[C@@H]1[C@H](NC(=O)N(C)C)CCCN1c1cnc(C(N)=O)c(Nc2ccc(N3CCN(C4CCCC4)CC3)cc2)n1` [Example D-182, 3-{[4-(4-cyclopentylpiperazin-1-yl)phenyl]amino}-5-[(2R,3R)-3-[(dimethylcarbamoyl)amino]-2-methylpiperidin-1-yl]pyrazine-2-carboxamide] cannot be ordered by IC50: no more than 10 nM for the first, no more than 10 nM for the second.
